# From US20240279283A1, “CYCLIC PEPTIDE ANTIBIOTICS” (priority 2021, published 2024)
# Bridge positions count the residues as written; N and C are the ends. Square brackets hold non-standard residues; d marks the D form. Peptide text beside a SMILES is read from it. Phe(4-Cl) = N[C@@H](Cc1ccc(Cl)cc1)C(=O)O; His(π-Me) = Cn1cncc1C[C@H](N)C(=O)O; NMeF = CN[C@@H](Cc1ccccc1)C(=O)O; Abu = CC[C@H](N)C(=O)O; Aib = CC(C)(N)C(=O)O
# Tests used:
# Assay type in all cases: cell-based
# Details in all cases: LB broth, 5×10^5 CFU/ml, 37° C., 18 hours, scored by eye
# E. coli 25922 = assay: Minimum Inhibitory Concentration (MIC) determination, E. coli 25922; design: unit not given here
# Procedure: (§1) MICs were determined by performing two-fold serial dilutions of peptides in LB broth to a final volume of 0.1 ml in round-bottom 96-well assay plates (Corning Life Sciences No 3788). Peptides were initially resuspended in 100% DMSO to 10 mM and subsequently diluted in LB medium to the appropriate concentration. Each well was inoculated with 5×10^5 CFU/ml of the screening stain and incubated at 37° C. without agitation for 18 hours. Plates were scored by eye, and the lowest compound concentration preventing visible growth was determined to be the MIC.
# E. coli BW25113 = assay: Minimum Inhibitory Concentration (MIC) determination, E. coli BW25113; design: unit not given here
# Procedure: as §1
# E. coli 25922 IMP = assay: Minimum Inhibitory Concentration (MIC) determination, E. coli 25922 IMP
# Procedure: as §1
Structure (SMILES),MIC E. coli 25922 WUXI::MIC (E. coli 25922),MIC E. coli BW25113 WUXI::MIC (E. coli BW25113),MIC E. coli 25922 IMP WUXI::MIC (E. coli 25922 IMP)
CC[C@@H]1NC(=O)[C@H](Cc2ccccc2)NC(=O)CSC[C@@H](C(=O)NCC(N)=O)NC(=O)[C@H](Cc2cncn2C)NC(=O)[C@H](CN)NC(=O)[C@H](Cc2c[nH]cn2)NC(=O)[C@H](Cc2ccc(O)cc2)N(C)C(=O)[C@H](CCCNC(=N)N)NC(=O)[C@H](CO)NC(=O)CNC(=O)[C@H](Cc2c[nH]cn2)NC(=O)[C@H](Cc2cccc3ccccc23)NC1=O (racemic) [Compound 46],100,–,–
CC[C@@H]1NC(=O)[C@H](Cc2ccccc2)N(C)C(=O)CSC[C@@H](C(=O)NCC(N)=O)NC(=O)[C@H](Cc2cncn2C)NC(=O)[C@H](CCN)NC(=O)[C@H](Cc2c[nH]cn2)NC(=O)[C@H](Cc2ccc(O)cc2)N(C)C(=O)[C@H](CCCNC(=N)N)NC(=O)[C@H](CO)NC(=O)CNC(=O)[C@H](Cc2c[nH]cn2)NC(=O)[C@H](Cc2cccc3ccccc23)NC1=O (racemic) [Compound 49],50,–,–
CCC1NC(=O)C(Cc2c[nH]cn2)NC(=O)C(Cc2ccc(O)cc2)N(C)C(=O)C(CCCNC(=N)N)NC(=O)C(CO)NC(=O)CNC(=O)C(Cc2c[nH]cn2)NC(=O)C(Cc2cccc3ccccc23)NC(=O)C(CC)NC(=O)C(Cc2ccccc2)N(C)C(=O)CSCC(C(=O)NCC(N)=O)NC(=O)C(Cc2cncn2C)NC1=O (racemic) [Compound 44],>100,–,–
CC[C@@H]1NC(=O)[C@H](Cc2ccccc2)NC(=O)CSC[C@@H](C(=O)NCC(N)=O)NC(=O)[C@H](Cc2cncn2C)NC(=O)[C@H](CCC(N)=O)NC(=O)[C@H](Cc2c[nH]cn2)NC(=O)[C@H](Cc2ccc(O)cc2)N(C)C(=O)[C@H](CCCNC(=N)N)NC(=O)[C@H](CO)NC(=O)CNC(=O)[C@H](Cc2c[nH]cn2)NC(=O)[C@H](Cc2cccc3ccccc23)NC1=O (racemic) [Compound 42],100,–,–
CC[C@@H]1NC(=O)[C@H](Cc2ccccc2)N(C)C(=O)CSC[C@@H](C(=O)NCC(N)=O)NC(=O)[C@H](Cc2cncn2C)NC(=O)[C@H](CN)NC(=O)[C@H](Cc2c[nH]cn2)NC(=O)[C@H](Cc2ccc(O)cc2)N(C)C(=O)[C@H](CCCNC(=N)N)NC(=O)[C@H](CO)NC(=O)CNC(=O)[C@H](Cc2c[nH]cn2)NC(=O)[C@H](Cc2cccc3ccccc23)NC1=O (racemic) [Compound 48],>100,–,–
CC[C@H](C)[C@@H]1NC(=O)[C@H]([C@@H](C)O)NC(=O)[C@H](Cc2cncn2C)NC(=O)[C@H](Cc2ccccc2)NC(=O)CSC[C@@H](C(=O)NCC(N)=O)NC(=O)[C@H](Cc2ccc(O)cc2)NC(=O)[C@H](Cc2ccc(Cl)cc2)NC(=O)[C@H](Cc2ccc(O)cc2)NC(=O)[C@H](CCCNC(=N)N)NC(=O)[C@H](Cc2ccccc2)NC(=O)C(C)(C)NC(=O)[C@H](CCCNC(=N)N)NC(=O)[C@H](CCCCN)NC(=O)[C@H](CCCNC(=N)N)NC1=O [Compound 58] ({CH2CO}-F[His(π-Me)]TIRKR[Aib]FRY[Phe(4-Cl)]YCG-NH2; thioether N-14),–,2,0.25
CC[C@H](C)[C@@H]1NC(=O)C(C)(C)NC(=O)[C@H](Cc2cncn2C)NC(=O)[C@H](Cc2ccccc2)NC(=O)CSC[C@@H](C(=O)NCC(N)=O)NC(=O)[C@H](Cc2ccc(O)cc2)NC(=O)[C@H](Cc2c[nH]c3ccccc23)NC(=O)[C@H](Cc2ccc(O)cc2)NC(=O)[C@H](CCCNC(=N)N)NC(=O)[C@H](Cc2ccccc2)NC(=O)C(C)(C)NC(=O)[C@H](CCCNC(=N)N)NC(=O)[C@H](CCCCN)NC(=O)[C@H](CCCNC(=N)N)NC1=O [Compound 57] ({CH2CO}-F[His(π-Me)][Aib]IRKR[Aib]FRYWYCG-NH2; thioether N-14),–,>32,2
"CC(C)[C@@H]1NC(=O)[C@H](Cc2ccccc2)NC(=O)CSC[C@@H](C(=O)NCC(N)=O)NC(=O)[C@H](Cc2cncn2C)NC(=O)[C@H](CCCNC(=N)N)NC(=O)[C@H](Cc2cnc[nH]2)NC(=O)[C@H](Cc2ccccc2)N(C)C(=O)[C@H](CCCNC(=N)N)NC(=O)[C@H](CO)NC(=O)CNC(=O)[C@H](Cc2cnc[nH]2)NC(=O)[C@H](Cc2c[nH]c3ccccc23)NC1=O (racemic) [Compound 9, rac-(3R,6S,9S,12S,15S,18S,21S,27S,30S, 33S,36S)-N-(2-amino-2-oxo-ethyl)-15,36-dibenzyl-9,18-bis(3-guanidinopropyl)-21-(hydroxymethyl)-12,27-bis(1H-imidazol-5-ylmethyl)-30-(1H-indol-3-ylmethyl)-33-isopropyl-16-methyl-6-[(3-methylimidazol-4-yl)methyl]-5,8,11,14,17,20,23,26,29,32,35,38-dodecaoxo-1-thia-4,7,10,13,16,19,22,25,28,31,34,37-dodecazacyclononatriacontane-3-carboxamide]",–,8,9.5367E−07
"CC[C@@H]1NC(=O)[C@H](Cc2ccccc2)NC(=O)CSC[C@@H](C(=O)NCC(N)=O)NC(=O)[C@H](Cc2cncn2C)NC(=O)[C@H](CC)NC(=O)[C@H](Cc2c[nH]cn2)NC(=O)[C@H](Cc2ccccc2)N(C)C(=O)[C@H](CCCNC(=N)N)NC(=O)[C@H](CO)NC(=O)CNC(=O)[C@H](Cc2c[nH]cn2)NC(=O)[C@H](Cc2c[nH]c3ccccc23)NC1=O [Compound 4, (3R,6S,9S,12S,15S,18S,21S,27S,30S, 33S,36S)-N-(2-amino-2-oxo-ethyl)-15,36-dibenzyl-9,33-diethyl-18-(3-guanidinopropyl)-21-(hydroxymethyl)-12,27-bis(1H-imidazol-4-ylmethyl)-30-(1H-indol-3-ylmethyl)-16-methyl-6-[(3-methylimidazol-4-yl)methyl]-5,8,11,14,17,20,23,26,29,32,35,38-dodecaoxo-1-thia-4,7,10,13,16,19,22,25,28,31,34,37-dodecazacyclononatriacontane-3-carboxamide] ({CH2CO}-F[Abu]WHGSR[NMeF]H[Abu][His(π-Me)]CG-NH2; thioether N-12)",–,>32,0.128
CC[C@H](C)[C@@H]1NC(=O)[C@H]([C@@H](C)O)NC(=O)[C@H](Cc2cncn2C)NC(=O)[C@H](Cc2ccccc2)NC(=O)CSC[C@@H](C(=O)NCC(N)=O)NC(=O)[C@H](Cc2ccc(O)cc2)NC(=O)[C@H](Cc2c[nH]c3ccccc23)NC(=O)[C@H](Cc2ccc(O)cc2)NC(=O)[C@H](CCCNC(=N)N)NC(=O)[C@H](Cc2ccccc2)NC(=O)C(C)(C)NC(=O)[C@H](CCCNC(=N)N)NC(=O)[C@H](CCCCN)NC(=O)[C@H](CCCNC(=N)N)NC1=O [Compound 52] ({CH2CO}-F[His(π-Me)]TIRKR[Aib]FRYWYCG-NH2; thioether N-14),–,1,0.125
CC[C@@H]1NC(=O)[C@H](Cc2ccccc2)N(C)C(=O)CSC[C@@H](C(=O)NCC(N)=O)NC(=O)[C@H](Cc2cncn2C)NC(=O)[C@H](CCC(N)=O)NC(=O)[C@H](Cc2c[nH]cn2)NC(=O)[C@H](Cc2ccc(O)cc2)N(C)C(=O)[C@H](CCCNC(=N)N)NC(=O)[C@H](CO)NC(=O)CNC(=O)[C@H](Cc2c[nH]cn2)NC(=O)[C@H](Cc2cccc3ccccc23)NC1=O (racemic) [Compound 45],>100,–,–
"CC[C@@H]1NC(=O)[C@H](Cc2ccccc2)NC(=O)CSC[C@@H](C(=O)NCC(N)=O)NC(=O)[C@H](Cc2cncn2C)NC(=O)[C@H](CCCNC(=N)N)NC(=O)[C@H](Cc2cnc[nH]2)NC(=O)[C@H](Cc2ccccc2)N(C)C(=O)[C@H](CCCNC(=N)N)NC(=O)[C@H](CO)NC(=O)CNC(=O)[C@H](Cc2cnc[nH]2)NC(=O)[C@H](Cc2cccc3ccccc23)NC1=O (racemic) [Compound 10, rac-(3R,6S,9S,12S,15S,18S,21S,27S,30S,3 3S,36S)-N-(2-amino-2-oxo-ethyl)-15,36-dibenzyl-33-ethyl-9,18-bis(3-guanidinopropyl)-21-(hydroxymethyl)-12,27-bis(1H-imidazol-5-ylmethyl)-16-methyl-6-[(3-methylimidazol-4-yl)methyl]-30-(1-naphthylmethyl)-5,8,11,14,17,20,23,26,29,32,35,38-dodecaoxo-1-thia-4,7,10,13,16,19,22,25,28,31,34,37-dodecazacyclononatriacontane-3-carboxamide]",–,8,2.3842E−07
CC[C@@H]1NC(=O)[C@H](Cc2ccccc2)NC(=O)CSC[C@@H](C(=O)NCC(N)=O)NC(=O)[C@H](Cc2cncn2C)NC(=O)[C@H](CCCNC(=N)N)NC(=O)[C@H](Cc2cnc[nH]2)NC(=O)[C@H](Cc2ccc(O)cc2)N(C)C(=O)[C@H](CCCNC(=N)N)NC(=O)[C@H](CO)NC(=O)CN(C)C(=O)[C@H](Cc2cnc[nH]2)NC(=O)[C@H](Cc2c[nH]c3ccccc23)NC1=O (racemic) [Compound 13],–,4,0.00
"CC[C@@H]1NC(=O)[C@H](Cc2ccccc2)NC(=O)CSC[C@@H](C(=O)NCC(N)=O)NC(=O)[C@H](Cc2cncn2C)NC(=O)[C@H](CCCNC(=N)N)NC(=O)[C@H](Cc2cnc[nH]2)NC(=O)[C@H](Cc2ccccc2)N(C)C(=O)[C@H](CCCNC(=N)N)NC(=O)[C@H](CO)NC(=O)CNC(=O)[C@H](Cc2c[nH]cn2)NC(=O)[C@H](Cc2c[nH]c3ccccc23)NC1=O [Compound 7, (3R,6S,9S,12S,15S,18S,21S,27S,30S, 33S,36S)-N-(2-amino-2-oxo-ethyl)-15,36-dibenzyl-33-ethyl-9,18-bis(3-guanidinopropyl)-21-(hydroxymethyl)-12,27-bis(1H-imidazol-4-ylmethyl)-30-(1H-indol-3-ylmethyl)-16-methyl-6-[(3-methylimidazol-4-yl)methyl]-5,8,11,14,17,20,23,26,29,32,35,38-dodecaoxo-1-thia-4,7,10,13,16,19,22,25,28,31,34,37-dodecazacyclononatriacontane-3-carboxamide] ({CH2CO}-F[Abu]WHGSR[NMeF]HR[His(π-Me)]CG-NH2; thioether N-12)",–,2,0.0005
